The subject of this assay is nerve cell prepared from cerebral cortex of fetus of SD rat. The experiment in a line: Measurement of nerve cell death suppressive activity. Type of assay: cell-based. To be noted: rat cerebral cortex nerve cells, LY294002 50 μM final concentration, 24 hr, viable cell number by Cell Titer Glo; read-out: IC50 value (concentration of the test compound needed for 50% inhibition of nerve cell death). How it is done:
The cerebral cortex was taken from fetus of TP-14 pregnant SD rat (CLEA Japan, Inc.), and nerve cell was prepared using nerve cell culture system (SUMITOMO BAKELITE). The cerebral cortex was placed in enzymatic solution of cell dispersion solution kit (SUMITOMO BAKELITE), and incubated at 37° C. for 30 min. The cells were suspended by pipetting, and collected by centrifugation at 1000 rpm for 5 min. The supernatant was removed, and cell dispersion solution (SUMITOMO BAKELITE) was added. The cells were suspended by pipetting. The cell suspension was placed on removing solution (SUMITOMO BAKELITE), and the cells were collected by centrifugation at 1000 rpm for 5 min. The supernatant was removed, and the cells were suspended in nerve cell culture medium (SUMITOMO BAKELITE). 100 μl of the suspension was seeded on a poly D lysine•laminin 96 well plate (Becton, Dickinson and Company) at 1×10^5 cells/well. Then, the plate was cultured in a carbon dioxide gas incubator at 37° C. for 4 days. A test compound (50 μl) was added on the 96 well plate, and 50 μL/well of LY294002 was added at 50 μM of the final concentration. Then, the plate was cultured in a carbon dioxide gas incubator for 24 hr. The medium (100 μl) was sampled, and 100 μl of Cell Titer Glo solution (Promega) was added to count the viable cell number. […]

This passage reports IC50 results from patent US20090156582A1, “Pyrazole Compound” (priority 2005, published 2009).

pIC50: −log10 of the molar value.

For the molecule `O=C(Nc1c[nH]nc1C(=O)Nc1ccccc1)c1cnccn1` [Example 98, N-{3-[(phenylamino)carbonyl]-1H-pyrazol-4-yl}pyrazine-2-carboxamide], the pIC50 was 6.36.

As to `O=C(Nc1c[nH]nc1C(=O)NC1CCCC1)c1cnccn1` [Example 79, N-{3-[(cyclopentylamino)carbonyl]-1H-pyrazol-4-yl}pyrazine-2-carboxamide], the pIC50 was 7.15.
